Experimental data: the METLIN SMRT retention time set (Domingo-Almenara et al. 2019)

Assay: gradient 5% acetonitrile 3 min, to 50% in 2 min, to 85% in 15 min, held 3 min, 100 µL/min
Settings: column: Zorbax Extend-C18 2.1 x 50 mm; eluents: water / acetonitrile, 0.1% formic acid
Summary of the method: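 Data were gathered over 3 months by HPLC coupled to a quadrupole time-of-flight mass spectrometer, operated in positive and negative ionization mode. Mixtures of ~100 pure standards ran on a Zorbax Extend-C18 column (2.1 × 50 mm, 1.8 μm) at 100 μL/min, with water and acetonitrile each containing 0.1% formic acid and dead and dwell volumes of 40 μL and 900 μL. Retention time was read from adduct peaks picked by computer and checked manually.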

Structure (SMILES) | RP-LC retention time
COc1ccc(NS(=O)(=O)c2cn(CC(C)C)c3ncccc23)cc1Cl | 950 s
Cc1cc(NCCN(C)C)n2nc(-c3ccccc3)c(C)c2n1 | 572 s
CC1=C(c2ccc(Cl)cc2)S(=O)(=O)N=C1N1CCCN(C(=O)C2CCCO2)CC1 (stereo unspecified) | 758 s
CC1CCN(CCNS(=O)(=O)c2ccccc2-c2nc(-c3ccccc3)no2)CC1 | 735 s
CCOC(=O)CNC(=O)N1CCCC1c1ccccc1Cl (stereo unspecified) | 804 s
Cc1cnc(C(=O)N2C[C@@H](Oc3cccnc3)C[C@H]2C(=O)NC2CC2)cn1 | 554 s
Clc1ccc(-c2nnc(-c3cccnc3NCc3cccs3)o2)cc1 | 1310 s
CCOc1ccc(CNC(=O)c2sccc2S(=O)(=O)N(C)c2ccc(OCC)cc2)cc1 | 1170 s
Cn1c(=O)c(N2CCC(NC(=O)Nc3ccccc3C(F)(F)F)CC2)nc2ccccc21 | 953 s
CC(C)(C)c1ccc(-c2nc(N3CCCC3)c3ccccc3n2)cc1 | 906 s
CCOc1ccc(C(=O)NCC(=O)Nc2nc3ccccc3[nH]2)cc1OCC | 640 s
O=C(NCC1CC1)C1CCN(c2nc3ccsc3c(=O)n2Cc2ccc(F)cc2)CC1 | 826 s
Cc1ccc2c(c1)C(O)(CC(=O)c1ccc(NC(=O)C(C)(C)C)cc1)C(=O)N2 (stereo unspecified) | 747 s
Cc1ccc(-c2noc(-c3cccc(S(=O)(=O)NCCN4CCCCCC4)c3)n2)cc1 | 794 s
Brc1ccc2nc(-c3ccccc3)c(Nc3ccc4c(c3)OCO4)n2c1 | 748 s
Cc1ccccc1CN1CCC2(CC1)CC(O)(c1ccccn1)CCO2 (stereo unspecified) | 570 s
Cc1cc(S(=O)(=O)Nc2cccn3cnnc23)ccc1F | 686 s
O=C(C1CCCN(c2nc3ccccc3n3cccc23)C1)N1CCN(c2ccccc2)CC1 (stereo unspecified) | 793 s
Cc1[nH]c2ccccc2c1C(=O)C(=O)NC1CC(=O)N(c2ccccc2)C1 (stereo unspecified) | 711 s
COCC1CN(C2CCC2)CC12CCN(C(=O)C1CCN(C(C)=O)CC1)CC2 (stereo unspecified) | 561 s
O=C(NCCCn1c(-c2ccncc2)nc2cccnc21)Nc1ccc(Br)cc1F | 718 s
CCSc1ccccc1C(=O)NC(C)Cc1ccco1 (stereo unspecified) | 841 s

Structure (SMILES) | RP-LC retention time
CSc1cccc(NC(=O)CN2C(=O)C3CCCCN3c3ccc(S(=O)(=O)N(C)C)cc32)c1 (stereo unspecified) | 982 s
CCn1c(CNC(=O)C2CCC2)nc2c1CN(C(=O)Cc1ccc(Cl)cc1)CC2 | 652 s
Cn1nc(-c2ccccc2)cc1C(=O)Nc1nc2c(s1)CN(S(=O)(=O)C1CC1)CC2 | 854 s
CSc1ccc(CNS(=O)(=O)c2cc3c(s2)CCN(C(=O)C2CC2)C3)cc1 | 872 s
O=C(NCCc1ccccc1)NCCC1CCN(S(=O)(=O)c2ccc(F)cc2)CC1 | 887 s
Cn1c(=O)n(C)c2cc(N3CCCCC3)c(NC(=O)NC3CCCC3)cc21 | 654 s
CC(C)(C)NCC(O)c1cc(Cl)c(N)c(C(F)(F)F)c1 (stereo unspecified) | 708 s
Cc1ccc(-c2nnc(Cc3nc(-c4ccncc4)no3)o2)cc1F | 814 s
Cc1cc(=O)n(CC(=O)N(C)c2ccccc2)c(N2CCOCC2)n1 | 657 s
Cc1oncc1CN1CCN(C(=O)c2c(F)cccc2F)CC1 | 562 s
CCNc1nc(NCC)n2c(SCC(=O)c3cccc(Br)c3)nnc2n1 | 680 s
CCn1nccc1-c1cccc(-c2noc(-c3ccc(Br)o3)n2)c1 | 1180 s
Cc1cccc(C)c1NC(=O)CSC1=Nc2ccccc2N=C(c2ccccc2)C1 | 1100 s
CC(=O)N1CCCc2cc(S(=O)(=O)CCC(=O)Nc3ccc(Br)cc3C)ccc21 | 829 s
Cc1cc(=O)n(CC(=O)NCc2ccccc2)c(N(C)Cc2ccccc2)n1 | 684 s
CN(Cc1nc2ccccc2n1Cc1ccccc1F)C(=O)c1ccco1 | 719 s
O=C1NC2(CCN(C(=O)c3ccccc3F)CC2)Nc2c(Cl)cccc21 | 742 s
Cc1noc(C)c1-c1ccc(S(=O)(=O)NCCc2ccccc2)cc1 | 957 s
O=C(CSc1nc2ncccc2[nH]1)NC1CCCCC1 | 621 s
Cc1ccc(-n2nc3c(N4CCCC(C(=O)NCc5ccccc5C)C4)nnc(C)c3c2C)cc1 (stereo unspecified) | 779 s
CCn1cc(C)c(C(=O)O)c1CC(=O)NCCC(C)C | 749 s
Cc1noc(-c2ccnc(-n3ncc(C(=O)N4CCSCC4)c3C)c2)n1 | 785 s

Structure (SMILES) | RP-LC retention time
O=c1[nH]cc(S(=O)(=O)N2CCCCCC2)c(=O)[nH]1 | 650 s
COc1ccccc1OCC(=O)NCCCS(=O)(=O)N1CCN(c2ccccc2)CC1 | 796 s
Cc1cccc2nnc(N3CCN(C(=O)c4cc(F)cc(F)c4)CC3)n12 | 669 s
CCCC(=O)OCC1OC(n2ccc(N)nc2=O)C(OC(=O)CCC)C1OC(=O)CCC (stereo unspecified) | 738 s
COc1cc2c(cc1CNC(=O)Cn1cc(C(=O)c3ccco3)c3ccccc31)OCCCO2 | 902 s
CC(=O)N1c2ccc(S(=O)(=O)N3CCCCC3)cc2CC1C(=O)NC1CCCC1 (stereo unspecified) | 830 s
O=C(c1ccc2ccccc2n1)N1C[C@@H](CO)[C@H](c2ccccn2)C1 | 590 s
COc1ccc(-c2nc3ccc(C)cn3c2Nc2ccc3c(c2)OCCO3)cc1 | 692 s
COCCNC(=O)c1c(C)oc2ccn(Cc3ccc(F)cc3)c(=O)c12 | 837 s
COc1ccc(NC(=O)Cn2nc3nc(N4CCCC(C)C4)ccn3c2=O)cc1F (stereo unspecified) | 775 s
O=C(NCc1ccccc1C(F)(F)F)C1=C2CCCN2c2ccccc2S1(=O)=O | 916 s
CCN(Cc1ccccc1)S(=O)(=O)c1c(C)c(-c2nnc(C3CCC3)o2)n(C)c1C | 1130 s
N#Cc1ccc(C(=O)N2CCCC2c2nc(-c3cccc(C(F)(F)F)c3)no2)cc1 (stereo unspecified) | 1060 s
COc1cc(NC(=O)N2CCN(c3ccc(=O)n(-c4ccc(C)c(C)c4)n3)CC2)cc(OC)c1OC | 775 s
COc1ccc(Cl)cc1NC(=O)c1cc(C(C)C)n2nccc2n1 | 1310 s
Cc1ccc(CN2CCN(C3CCN(C(=O)Nc4ccc5c(c4)OCCO5)CC3)C(=O)C2=O)cc1 | 715 s
O=C(Cn1nc(-c2cccs2)ccc1=O)Nc1nc2c(s1)CCCC2 | 741 s
Cc1ccc(-c2cc(C(=O)N3CCN(Cc4ccc5c(c4)OCO5)CC3)c(C)[nH]2)cc1C | 718 s
CC1=NS(=O)(=O)N(Cc2ccccc2)C=C1C(=O)OCc1noc(-c2ccccc2C)n1 | 1170 s
O=C(NC1CC1)c1csc(N2CCCCC2)n1 | 853 s
C=CCn1nnnc1NCc1ccc2c(c1)n(C)c(=O)n2C | 609 s
Cc1ccc(N2CC(c3noc(-c4ccoc4)n3)CC2=O)cc1 (stereo unspecified) | 868 s
